What was measured:
[1] = tested on: Canine parvovirus type 2 (CPV2); assay: Viability assay of canine fibroblast cells infected with CPV2 (trypan blue exclusion); type: cell-based; conditions: 72 hours post treatment; for cell viability after infection with CPV: added 1 hour after CPV2 infection
Procedure: (§1) Methods: Canine fibroblast cells were cultured in Dulbecco's modified Eagle's medium (DMEM) supplemented with 5% fetal bovine serum, 2 mM L-glutamine, 0.1 mM MEM non-essential amino acids, 1 mM sodium pyruvate, 0.05 mM 2-mercaptoethanol, 10 mM HEPES, 100 units/mL penicillin, and 100 mcg/mL streptomycin, at 38° C. with 5% CO2. Canine parvovirus type 2 (CPV2) was isolated from a fecal sample collected from a naturally infected dog. The virus was propagated on canine fibroblast cells and a titer of 10^13.37 tissue culture infectious doses (TCID50)/mL was used for viability assays. For viability assays, cells were routinely passaged and seeded in 96 well plates at 5×10^4 cells/mL in 200 μL complete DMEM media and incubated overnight at 38° C. with 5% CO2. The media was then removed and cells were infected with CPV2 for 1 hour at 38° C. with 5% CO2. […] A minimum of 3 independent experiments were performed for each assay.
72 hours post treatment, cells were assayed for viability. […] Data shown are Mean±SEM, pooled from three independent experiments.

Canine parvovirus (CPV) = assay: Treatment of puppies naturally infected with CPV, standard veterinary protocol supplemented with oral ferric citrate solution; type: in vivo, dog; conditions: for survival rate: twice daily for up to five days, monitored for 14 days
Procedure: Puppies presenting with symptoms of CPV infection, including vomiting, diarrhea, hematochezia, lethargy, and depression, were tested for CPV infection using IDEXX Laboratories SNAP® Parvo Test per manufacturer's protocols.

Canine fibroblast cells = assay: Viability of canine fibroblast cells in the absence of CPV infection (trypan blue exclusion); conditions: 1 μM, 72 hours
Procedure: as §1
Data shown are Mean±SEM, pooled from three independent experiments.

Compound	cell viability after infection with CPV ([1]; 1 μM)	cell viability after infection with CPV ([1]; 10 μM)	survival rate (Canine parvovirus (CPV); 0.22 mg/kg orally, 1/3)	mortality of the smallest puppies (<5 lbs) (Canine parvovirus (CPV); 0.22 mg/kg, lowest concentration tested)	survival rate (Canine parvovirus (CPV); 1.1 mg/kg orally, 2/5)	survival rate (Canine parvovirus (CPV); 2.2 mg/kg (highest concentration) orally, 5/5)	survival from natural infections with CPV with increasing concentrations (Canine parvovirus (CPV); increasing concentrations of ferric citrate (FIG. 3))	decrease in survival compared to cells infected with CPV ([1]; 1 μM, CPV-infected cells)	decrease in survival compared to the untreated cells ([1]; 1 μM, CPV-infected cells)	viability of treated versus untreated cells in the absence of CPV infection (Canine fibroblast cells)
ferric citrate	significant increase	significant increase	33.33%	not able to prevent mortality	40%	100%	increased survival	–	–	–
CC(=O)N(O)CCCCCNC(=O)CCC(=O)N(O)CCCCCNC(=O)CCC(=O)N(O)CCCCCN [deferoxamine, reference compound]	–	–	–	–	–	–	–	23%	45%	no significant difference
